According to ChEMBL document CHEMBL1156471, “Targeting host cell furin proprotein convertases as a therapeutic strategy against bacterial toxins and viral pathogens” (J Biol Chem, 2007):
Non-standard residues stand in square brackets, D forms with d. Residues, ends and D or L forms follow the SMILES beside them. Sar = CNCC(=O)O

Biological target: Furin (Homo sapiens, UniProt P09958)
Sequence (P09958 whole entry): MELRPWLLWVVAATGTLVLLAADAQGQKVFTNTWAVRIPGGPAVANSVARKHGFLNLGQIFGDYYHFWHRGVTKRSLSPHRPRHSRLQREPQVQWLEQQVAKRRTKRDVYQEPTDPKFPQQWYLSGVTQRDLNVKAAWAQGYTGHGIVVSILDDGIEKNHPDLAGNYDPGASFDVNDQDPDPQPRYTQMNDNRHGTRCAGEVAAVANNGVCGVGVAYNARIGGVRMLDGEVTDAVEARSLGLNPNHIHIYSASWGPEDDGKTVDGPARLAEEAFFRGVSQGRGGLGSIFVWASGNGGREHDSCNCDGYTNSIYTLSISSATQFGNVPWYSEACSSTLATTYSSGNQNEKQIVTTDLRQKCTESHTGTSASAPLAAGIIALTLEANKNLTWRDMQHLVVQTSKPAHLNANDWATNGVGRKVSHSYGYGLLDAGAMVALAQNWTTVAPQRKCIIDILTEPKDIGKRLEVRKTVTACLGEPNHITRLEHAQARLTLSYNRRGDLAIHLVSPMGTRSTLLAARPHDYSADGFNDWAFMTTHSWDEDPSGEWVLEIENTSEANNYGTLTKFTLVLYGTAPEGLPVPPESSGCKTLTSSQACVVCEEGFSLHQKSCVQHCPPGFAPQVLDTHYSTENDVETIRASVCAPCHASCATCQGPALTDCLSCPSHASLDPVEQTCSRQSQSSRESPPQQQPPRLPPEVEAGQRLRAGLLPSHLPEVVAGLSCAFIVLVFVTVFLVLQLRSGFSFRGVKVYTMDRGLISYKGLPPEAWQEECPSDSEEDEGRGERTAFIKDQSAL

Row | Compound | Ki [nM]
1 | C[C@@H](O)[C@H](N)C(=O)N1CCC[C@H]1C(=O)N[C@@H](CCC(N)=O)C(=O)N[C@@H](CCCNC(=N)N)C(=O)N[C@@H](CCC(=O)O)C(=O)N[C@@H](CCCNC(=N)N)C(=O)N[C@@H](CCCNC(=N)N)C(=O)N[C@@H](CCCNC(=N)N)C(=O)N[C@@H](CCCCN)C(=O)N[C@@H](CCCCN)C(=O)N[C@@H](CCCNC(=N)N)C(=O)NCC(=O)O | > 100
2 | H-TPRWRRRKKRG-OH | > 100
3 | H-TPRLRRRKKRG-OH | > 100
4 | H-TPRARRRKKRQ-OH | 47
5 | H-TPQRARRRKKRC-OH | > 100
6 | H-GAGAGATPRARRRKKRF-OH | 56
7 | H-GGGGGGTPRARRRKKRY-OH | 54
8 | C[C@H](NC(=O)[C@H](CCCN=C(N)N)NC(=O)[C@H](CCC(N)=O)NC(=O)[C@@H]1CCCN1C(=O)[C@@H](N)[C@@H](C)O)C(=O)N[C@@H](CCCN=C(N)N)C(=O)N[C@@H](CCCN=C(N)N)C(=O)N[C@@H](CCCN=C(N)N)C(=O)N[C@@H](CCCCN)C(=O)N[C@@H](CCCCN)C(=O)N[C@@H](CCCNC(N)=O)C(=O)NCC(=O)O | > 100
9 | H-TPQRARRRKKRQ-OH | > 100
10 | H-TPRERRRKARV-OH | > 100
11 | H-TPRARRRKKRD-OH | 56
12 | H-TPRERRRAARV-OH | > 100
13 | H-GAGAGATPRARRRKKRY-OH | 57
14 | H-TPQRARRRKKRS-OH | > 100
15 | H-TPQRFRRRKKRG-OH | > 100
16 | C[C@@H](O)[C@H](N)C(=O)N1CCC[C@H]1C(=O)N[C@@H](CCC(N)=O)C(=O)N[C@@H](CCCN=C(N)N)C(=O)N[C@H](CCCN=C(N)N)C(=O)N[C@@H](CCCN=C(N)N)C(=O)N[C@@H](CCCN=C(N)N)C(=O)N[C@@H](CCCN=C(N)N)C(=O)N[C@@H](CCCCN)C(=O)N[C@@H](CCCCN)C(=O)N[C@@H](CCCNC(=N)N)C(=O)NCC(=O)O | > 100
17 | H-TPREAAAKKRV-OH | > 100
18 | H-TPRERRRKAAV-OH | > 100
19 | H-TPQRARRRKKRV-OH | 48
20 | C[C@H](NC(=O)[C@H](CCCNC(=N)N)NC(=O)[C@H](CCC(N)=O)NC(=O)[C@@H]1CCCN1C(=O)[C@@H](N)[C@@H](C)O)C(=O)N[C@@H](CCCNC(=N)N)C(=O)N[C@@H](CCCNC(=N)N)C(=O)N[C@@H](CCCNC(=N)N)C(=O)N[C@@H](CCCCN)C(=O)N[C@@H](CCCCN)C(=O)N[C@H](CCCNC(=N)N)C(=O)NCC(=O)O | > 100
21 | H-TPREAARKKR-OH | > 100
22 | H-TPRARRRKKRR-OH | > 100
23 | CC(C)C[C@H](NC(=O)[C@H](CCCNC(=N)N)NC(=O)[C@H](CCC(N)=O)NC(=O)[C@@H]1CCCN1C(=O)[C@@H](N)[C@@H](C)O)C(=O)N[C@@H](CCCNC(=N)N)C(=O)N[C@@H](CCCNC(=N)N)C(=O)N[C@@H](CCCNC(=N)N)C(=O)N[C@@H](CCCCN)C(=O)N[C@@H](CCCCN)C(=O)N[C@@H](CCCNC(=N)N)C(=O)NCC(=O)O | > 100
24 | H-TPREARRKKRG-OH | > 100
25 | H-AARERRRKKRG-OH | > 100

Row | Compound | Ki [nM]
26 | H-TPRARRRKKRF-NH2 | 38
27 | H-GGGGGGTPRARRRKKRF-OH | 45
28 | H-APRERRRKKR-OH | > 100
29 | H-TPRCRRRKKRG-NH2 | > 100
30 | C[C@H](NC(=O)[C@H](C)NC(=O)[C@@H]1CCCN1C(=O)[C@@H](N)[C@@H](C)O)C(=O)N[C@@H](CCCN=C(N)N)C(=O)N[C@@H](CCCN=C(N)N)C(=O)N[C@@H](CCCN=C(N)N)C(=O)N[C@@H](CCCCN)C(=O)N[C@@H](CCCCN)C(=O)N[C@@H](CCCN=C(N)N)C(=O)N(C)CC(=O)O (H-TPAARRRKKR[Sar]-OH) | > 100
31 | C[C@H](NC(=O)[C@H](CCCNC(=N)N)NC(=O)[C@@H]1CCCN1C(=O)[C@@H](N)[C@@H](C)O)C(=O)N[C@@H](CCCNC(=N)N)C(=O)N[C@@H](CCCNC(=N)N)C(=O)N[C@@H](CCCNC(=N)N)C(=O)N[C@@H](CCCCN)C(=O)N[C@@H](CCCCN)C(=O)N[C@@H](CCCNC(=N)N)C(=O)N[C@@H](CS)C(N)=O | > 100
32 | C[C@H](NC(=O)[C@H](C)NC(=O)[C@H](CCCNC(=N)N)NC(=O)[C@H](CCCNC(=N)N)NC(=O)[C@H](CCCNC(=N)N)NC(=O)[C@H](CCC(=O)O)NC(=O)[C@H](CCCNC(=N)N)NC(=O)[C@@H]1CCCN1C(=O)[C@@H](N)[C@@H](C)O)C(=O)N[C@@H](CCCNC(=N)N)C(=O)NCC(=O)O | > 100
33 | H-TPRERRRKKA-OH | > 100
34 | C[C@H](NC(=O)[C@H](CCCCN)NC(=O)[C@H](CCCCN)NC(=O)[C@H](CCCN=C(N)N)NC(=O)[C@H](CCCN=C(N)N)NC(=O)[C@H](CCCN=C(N)N)NC(=O)[C@H](CCC(=O)O)NC(=O)[C@H](CCCN=C(N)N)NC(=O)[C@@H]1CCCN1C(=O)[C@@H](N)[C@@H](C)O)C(=O)N(C)CC(=O)O (H-TPRERRRKKA[Sar]-OH) | > 100
35 | H-TPRIRRRKKRG-OH | > 100
36 | H-TPAAARRKKRV-OH | > 100
37 | C[C@H](NC(=O)[C@H](C)NC(=O)[C@@H]1CCCN1C(=O)[C@@H](N)[C@@H](C)O)C(=O)N[C@@H](C)C(=O)N[C@@H](CCCNC(=N)N)C(=O)N[C@@H](CCCNC(=N)N)C(=O)N[C@@H](CCCCN)C(=O)N[C@@H](CCCCN)C(=O)N[C@@H](CCCNC(=N)N)C(=O)N(C)CC(=O)O (H-TPAAARRKKR[Sar]-OH) | > 100
38 | H-TPRARRRKKRG-OH | 57
39 | H-TPRQRRRKKRG-OH | > 100
40 | H-TPRERRAKKRG-NH2 | > 100
41 | H-TPRARRRKKRN-NH2 | 45
42 | H-TPRSRRRKKRG-NH2 | > 100
43 | H-TPRARRRKKRY-OH | 53
44 | H-TPQRARRRKKRE-OH | 103
45 | C[C@@H](O)[C@H](N)C(=O)N1CCC[C@H]1C(=O)N[C@@H](CCC(N)=O)C(=O)N[C@@H](CCCNC(=N)N)C(=O)NCCC(=O)N[C@@H](CCCN=C(N)N)C(=O)N[C@@H](CCCN=C(N)N)C(=O)N[C@@H](CCCN=C(N)N)C(=O)N[C@@H](CCCCN)C(=O)N[C@@H](CCCCN)C(=O)N[C@@H](CCCNC(=N)N)C(=O)NCC(=O)O | > 100
46 | H-TPRARRRKKRK-NH2 | > 100
47 | C[C@H](NC(=O)[C@H](CCCNC(=N)N)NC(=O)[C@H](CCC(N)=O)NC(=O)[C@@H]1CCCN1C(=O)[C@@H](N)[C@@H](C)O)C(=O)N[C@@H](CCCNC(=N)N)C(=O)N[C@@H](CCCNC(=N)N)C(=O)N[C@@H](CCCNC(=N)N)C(=O)N[C@@H](CCCCN)C(=O)N[C@@H](CCCCN)C(=O)N[C@H](CCCCN)C(=O)NCC(=O)O | > 100
48 | CC(C)C[C@H](NC(=O)[C@H](CCCNC(=N)N)NC(=O)[C@H](CCCCN)NC(=O)[C@H](CCCCN)NC(=O)[C@H](CCCNC(=N)N)NC(=O)[C@H](CCCNC(=N)N)NC(=O)[C@H](CCCNC(=N)N)NC(=O)[C@H](C)NC(=O)[C@H](CCCNC(=N)N)NC(=O)[C@@H]1CCCN1C(=O)[C@@H](N)[C@@H](C)O)C(N)=O | > 100
49 | CC[C@H](NC(=O)[C@H](CCCNC(=N)N)NC(=O)[C@H](CCC(N)=O)NC(=O)[C@@H]1CCCN1C(=O)[C@@H](N)[C@@H](C)O)C(=O)N[C@@H](CCCNC(=N)N)C(=O)N[C@@H](CCCNC(=N)N)C(=O)N[C@@H](CCCNC(=N)N)C(=O)N[C@@H](CCCCN)C(=O)N[C@@H](CCCCN)C(=O)N[C@@H](CCCNC(=N)N)C(=O)NCC(=O)O | > 100
